# Measured values from PMC6792352, “Limited Chemical Structural Diversity Found to Modulate Thyroid Hormone Receptor in the Tox21 Chemical Library” (Environmental Health Perspectives, 2019).
# Structures can show the parent of a compound that is named as a salt.
# Assay: in vitro
# Conditions: rat, gh3-tre-luc cells, AC50 (uM) modified / 1000
row,Structure (SMILES),CC50 at 24 h
1,C=CCC1=C(C)[C@@H](OC(=O)[C@@H]2[C@@H](C=C(C)C)C2(C)C)CC1=O [S-Bioallethrin],32.6 µM
2,O=C(CCl)Nc1ccccc1 [2-Chloro-N-phenylacetamide],23.7 µM
3,COc1ccc(/C=C/C(=O)OCCC(C)C)cc1 [Amiloxate],> 50 µM
4,Cc1oc(=O)oc1CN1CCN(c2cc3c(cc2F)c(=O)c(C(=O)O)c2n3C(C)S2)CC1 (centres unmarked) [Prulifloxacin],> 50 µM
5,CN1C(=O)NC(=O)C(C)(C2=CCCCC2)C1=O (centres unmarked) [Hexobarbital],> 50 µM
6,CCCCC(CC)COCCCN (centres unmarked) [3-((2-Ethylhexyl)oxy)propylamine],> 90 µM
7,CSc1ccc2c(c1)C(N1CCN(C)CC1)Cc1ccccc1S2 (centres unmarked) [Metitepine],5.16 µM
8,CCCCCCOC(=O)C(C)CC (centres unmarked) [Hexyl 2-methylbutanoate],> 90 µM
9,"COc1ccc(OC)c(CC(C)N)c1 (centres unmarked) [2,5-Dimethoxyamphetamine hydrochloride]",> 100 µM
10,N[C@@H](C=O)[C@@H](O)[C@@H](O)[C@H](O)CO [Galactosamine hydrochloride],> 90 µM
11,CC(CCO)CCc1ccccc1 (centres unmarked) [3-Methyl-5-phenylpentan-1-ol],> 90 µM
12,CCC(=O)OC [Methyl propanoate],> 90 µM
13,CC1(C)[C@H]2CC[C@]1(C)C(=O)C2=O [(+)Camphorquinone],> 90 µM
14,CC(C)C(=O)OCCOc1ccccc1 [Phenoxyethyl isobutyrate],> 90 µM
15,NC(=O)CC[C@H](Nc1ccc([N+](=O)[O-])cc1)C(=O)O [N2-(4-Nitrophenyl)-L-glutamine hydrochloride],> 90 µM
16,CCCCCC[C@@H](O)C/C=C\CCCCCCCC(=O)OC [Methyl ricinoleate],> 90 µM
17,CCCCC[C@H](O)/C=C/[C@H]1[C@H](O)CC(=O)[C@@H]1CCCCCCC(=O)O [Alprostadil],> 20 µM
18,CC[C@]1(O)C[C@H]2CN(CCc3c([nH]c4ccccc34)[C@@](C(=O)OC)(c3cc4c(cc3OC)N(C)[C@H]3[C@@](O)(C(N)=O)[C@H](O)[C@]5(CC)C=CCN6CC[C@]43[C@@H]65)C2)C1 [Vindesine sulfate salt],0.425 µM
19,"O=C1NC(=O)c2cccc3cccc1c23 [1H-Benzo[de]isoquinoline-1,3(2H)-dione]",> 90 µM

row,Structure (SMILES),CC50 at 24 h
1,CC(=O)CC/C=C(\C)CC/C=C(\C)CC/C=C(\C)CCC=C(C)C [Teprenone],> 50 µM
2,O=C(O)CCCCCCC(=O)O [Octanedioic acid],> 90 µM
3,CNC(=O)Oc1ccccc1OC(C)C [Propoxur],> 90 µM
4,CCOC(C)=O [Ethyl acetate],> 90 µM
5,C=C(C)C(=O)OCCCCCCCCCCCCCCCCCC [Stearyl methacrylate],> 20 µM
6,C=CC(=O)OCCCl [2-Chloroethyl acrylate],> 90 µM
7,CCCCOC(=O)c1ccccc1C(=O)OCc1ccccc1 [Benzyl butyl phthalate],> 90 µM
8,CCOC(=O)OCC/C(SC(=O)OCC)=C(\C)N(C=O)Cc1cnc(C)nc1N [Dicethiamine hydrochloride],> 50 µM
9,NC(=O)c1cnccn1 [Pyrazinamide],> 90 µM
10,Cc1cccc(C)c1NC(=O)CC12CCCN1CCC2 [Pilsicainide],> 50 µM
11,O=C(O)c1ccccc1C(c1ccc(O)cc1)c1ccc(O)cc1 [Phenolphthalin],> 90 µM
12,O=C(c1ccccc1)C1(O)CCCCC1 [(1-Hydroxycyclohexyl)(phenyl)methanone],> 90 µM
13,O=[N+]([O-])c1ccc(F)c(Cl)c1 [2-Chloro-1-fluoro-4-nitrobenzene],> 90 µM
14,CN(C)C(C)(C)CO [2-(Dimethylamino)-2-methylpropan-1-ol],> 90 µM
15,CC/C=C\C/C=C\C/C=C\C/C=C\C/C=C\CCCC(=O)O [Eicosapentaenoic acid],> 50 µM
16,CCOc1ccc([N+](=O)[O-])cc1 [1-Ethoxy-4-nitrobenzene],39.1 µM
17,CCOC(=O)c1cc(-c2ccccc2)nc2ccc(C)cc12 [Neocinchophen],44.6 µM
18,CCCCCCCCOc1ccccc1C(=O)Nc1ccc(C(=O)OCC[N+](C)(CC)CC)cc1 [Otilonium bromide],22.8 µM
19,Nc1ccc(Br)cc1 [4-Bromoaniline],> 90 µM

row,Structure (SMILES),CC50 at 24 h
1,N[C@@H](C(=O)N[C@@H]1C(=O)N2C(C(=O)O)=C(Cl)CC[C@H]12)c1ccccc1 [Loracarbef monohydrate],> 50 µM
2,CN(C)CCCO[C@@H]1[C@H]2OC(C)(C)O[C@H]2O[C@@H]1[C@H](O)CO [Amiprilose hydrochloride],> 50 µM
3,CC(C)(O)c1ccc(CNC(=O)c2cccnc2Oc2ccc(F)cc2)cc1 [CP-457677],> 90 µM
4,O=C(O)C(=O)Nc1cccc(-c2nnn[nH]2)c1 [Acitazanolast],> 50 µM
5,CCOc1ccc2[nH]cc(C(=O)NCc3ccccc3)c(=O)c2n1 [CP-457920],> 90 µM
6,"O=C(/C=C/c1ccc(O)c(O)c1)O[C@@H]1C[C@](OC(=O)/C=C/c2ccc(O)c(O)c2)(C(=O)O)C[C@@H](O)[C@H]1O [1,5-Dicaffeoylquinic acid]",> 50 µM
7,CCN=C1C=CC(=C(c2ccc(N(CC)CC)cc2)c2ccc(N(CC)CC)cc2)c2ccccc21 [Basic Blue 7],0.714 µM
8,O=C(N[C@H]1N=C(c2ccccc2F)c2cccc3c2N(CC3)C1=O)c1cc2ccccc2[nH]1 [Pranazepide],> 50 µM
9,"C/C=C/C=C/CO [(2E,4E)-Hexa-2,4-dien-1-ol]",> 90 µM
10,Nc1nc2c(c(=O)[nH]1)N(C=O)C(CNc1ccc(C(=O)N[C@@H](CCC(=O)O)C(=O)O)cc1)CN2 (some centres unmarked) [Calcium folinate pentahydrate],> 20 µM
11,S=C=NCCc1ccccc1 [Phenethyl isothiocyanate],79.7 µM
12,"Nc1nc(Cl)cc(Cl)n1 [2-Amino-4,6-dichloropyrimidine]",> 90 µM
13,C[C@H]1C[C@@H]2[C@H]([C@@H](O)C[C@@]3(C)[C@H]2CC[C@]3(O)C(=O)COC(=O)CCC(=O)O)[C@@]2(C)C=CC(=O)C=C12 [Methylprednisolone succinate],> 50 µM
14,O=S(=O)(O)c1ccc(N=Nc2c(O)ccc3ccccc23)cc1 [C.I. Acid Orange 7],44.3 µM
15,Cn1cc(C(=O)[C@@H]2CCc3nc[nH]c3C2)c2ccccc21 [Ramosetron hydrochloride],> 50 µM
16,Cc1cccc(Nc2ccccc2)c1 [3-Methyl-N-phenylaniline],> 90 µM
17,COc1ccc(CCC(C)=O)cc1 [4-(4-Methoxyphenyl)-2-butanone],> 90 µM
18,CC(=O)Oc1cc(C(C)C)c(OCCN(C)C)cc1C [Moxisylyte hydrochloride],> 20 µM
19,COC(=O)[C@H]1[C@@H](OC(=O)c2ccccc2)C[C@@H]2CC[C@H]1N2C [(-)-Cocaine hydrochloride],> 90 µM

# Same assay, conditions: rat, gh3-tre-luc cells, AC50 (uM) modified / 1000, Tox21_110001=Tox21_111849; viability, 1 nM T3 present, 24 h
row,Structure (SMILES),CC50 at 24 h
1,N#CC1(N2CCCCC2)CCCCC1 [1-Piperidinocyclohexanecarbonitrile],> 50 µM

# Same assay, conditions: rat, gh3-tre-luc cells, AC50 (uM) modified / 1000, Tox21_110001=Tox21_112826; viability, 1 nM T3 present, 24 h
row,Structure (SMILES),CC50 at 24 h
1,C[C@H]1[C@@H]2Cc3ccc(O)cc3[C@@]1(C)CCN2C [(+)-Metazocine fumarate (2:1)],> 200 µM

# Same assay, conditions: rat, gh3-tre-luc cells, AC50 (uM) modified / 1000, Tox21_110001=Tox21_112891; viability, 1 nM T3 present, 24 h
row,Structure (SMILES),CC50 at 24 h
1,"CCN(CC)CCc1c[nH]c2ccccc12 [N,N-Diethyltryptamine fumarate]",> 100 µM

# Same assay, conditions: rat, gh3-tre-luc cells, AC50 (uM) modified / 1000, Tox21_110001=Tox21_202334; viability, 1 nM T3 present, 24 h
row,Structure (SMILES),CC50 at 24 h
1,CCCCN(CCCC)N=O [N-Nitrosodibutylamine],> 90 µM

# Same assay, conditions: rat, gh3-tre-luc cells, AC50 (uM) modified / 1000, Tox21_110001=Tox21_302209; viability, 1 nM T3 present, 24 h
row,Structure (SMILES),CC50 at 24 h
1,CCOP(=S)(OCC)Oc1cc(-c2ccccc2)on1 [Isoxathion],> 90 µM
